PubChem BioAssay (NCI)
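Test compounds were applied to cells in 96-well plates for 48 hours at 5 doses. GI50: concentration for 50% inhibition of growth. Definition used: TGI = concentration required for complete inhibition of growth.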

Key:
Assay in all cases: NCI tumour cell line growth inhibition, 48 h
HOP-62 NSCLC = test system: HOP-62 NSCLC
SF-539 CNS = test system: SF-539 CNS
HL-60(TB) leukemia = test system: HL-60(TB) leukemia
RXF 393 renal = test system: RXF 393 renal
SF-268 CNS = test system: SF-268 CNS
786-0 renal = test system: 786-0 renal
SN12C renal = test system: SN12C renal
SK-MEL-28 melanoma = test system: SK-MEL-28 melanoma
M14 melanoma = test system: M14 melanoma
SF-295 CNS = test system: SF-295 CNS

SMILES | GI50 (HOP-62 NSCLC) | TGI (HOP-62 NSCLC) | GI50 (SF-539 CNS) | TGI (SF-539 CNS) | GI50 (HL-60(TB) leukemia) | TGI (HL-60(TB) leukemia) | GI50 (RXF 393 renal) | TGI (RXF 393 renal) | GI50 (SF-268 CNS) | TGI (SF-268 CNS) | GI50 (786-0 renal) | TGI (786-0 renal) | GI50 (SN12C renal) | TGI (SN12C renal) | GI50 (SK-MEL-28 melanoma) | TGI (SK-MEL-28 melanoma) | GI50 (M14 melanoma) | TGI (M14 melanoma) | TGI (SF-295 CNS) | GI50 (SF-295 CNS)
COc1ccc(CNC(=O)c2c(C)n([O-])c3cc(F)c(F)cc3[n+]2=O)cc1 | 18.2 µM | 32.7 µM | 16.5 µM | 30.6 µM | 2.64 µM | 12.2 µM | 8.2 µM | 23.4 µM | 4.4 µM | 15.7 µM | 16.9 µM | 30.6 µM | 14.2 µM | 27.2 µM | 11.5 µM | 23.6 µM | 12 µM | 24.4 µM | – | –
CC1CCC2[C@@H](C)COC3O[C@]4(C)CCC1C32OO4 (some centres not stated) | – | > 100 µM | – | > 100 µM | – | – | – | > 100 µM | – | > 100 µM | – | > 100 µM | – | > 100 µM | – | > 100 µM | – | > 100 µM | > 100 µM | –
O=[N+]([O-])c1ccc2nc(=S)[nH]n2c1 | – | > 100 µM | – | > 100 µM | – | > 100 µM | – | > 100 µM | – | > 100 µM | – | > 100 µM | – | > 100 µM | – | – | – | > 100 µM | > 100 µM | –
CC1SC(c2cccc(Cl)c2)N(NC(=O)C(O)c2ccccc2)C1=O (configuration not stated) | > 100 µM | > 100 µM | > 100 µM | > 100 µM | – | – | 80.6 µM | > 100 µM | > 100 µM | > 100 µM | > 100 µM | > 100 µM | > 100 µM | > 100 µM | > 100 µM | > 100 µM | > 100 µM | > 100 µM | > 100 µM | > 100 µM
COc1ccc(OC)c(/C=C/C(=O)c2ccc3cc(OC)ccc3c2)c1 | 9.71 µM | > 50 µM | – | > 12.6 µM | 4.93 µM | > 39.4 µM | – | – | > 14.3 µM | > 50 µM | > 11.7 µM | > 50 µM | – | > 13.1 µM | 3.74 µM | > 50 µM | > 23.4 µM | > 50 µM | 12.2 µM | 1.5 µM
O=S1Cc2ccccc2CSS1 (configuration not stated) | – | – | – | 29.8 µM | – | 20 µM | – | 13.8 µM | – | 74.2 µM | – | 29.1 µM | – | 29.4 µM | – | 26.8 µM | – | 27 µM | 37.9 µM | –
C=C1C(OCCO)OC2O[C@]3(C)CCC4[C@H](C)CCC1C24OO3 (some centres not stated) | 52.7 µM | > 100 µM | 36.6 µM | > 100 µM | 3.1 µM | 15.6 µM | – | – | 43.4 µM | > 100 µM | 24.5 µM | > 100 µM | – | – | > 100 µM | > 100 µM | 78.4 µM | > 100 µM | > 100 µM | > 100 µM
CC(=O)Nc1ccc(OCC(O)CO)cc1 (configuration not stated) | – | > 100 µM | – | > 100 µM | – | – | – | > 100 µM | – | > 100 µM | – | 70.2 µM | – | > 100 µM | – | > 100 µM | – | > 100 µM | > 100 µM | –
C(=NCCN=Cc1cccc2ccccc12)c1cccc2ccccc12 | – | – | – | > 100 µM | – | – | – | > 100 µM | – | – | – | > 100 µM | – | > 100 µM | – | > 100 µM | – | – | > 100 µM | –
C#Cc1ccccc1N1C(=O)C=CC1=O | – | > 100 µM | – | – | – | > 100 µM | – | – | – | > 100 µM | – | > 100 µM | – | > 100 µM | – | > 100 µM | – | > 100 µM | > 100 µM | –
O=C(CN1CCN(c2ccccn2)CC1)Nc1ccc(Cl)cc1C(=O)c1ccccc1Cl | – | – | 45.9 µM | > 100 µM | 5.51 µM | > 100 µM | > 100 µM | > 100 µM | > 100 µM | > 100 µM | 1.57 µM | > 100 µM | > 100 µM | > 100 µM | > 100 µM | > 100 µM | 50.9 µM | > 100 µM | > 100 µM | 30.5 µM
CC(=O)OC1(C#N)CC2OC1C1NC21 (configuration not stated) | – | > 100 µM | – | > 100 µM | – | > 100 µM | – | > 100 µM | – | > 100 µM | – | > 100 µM | – | > 100 µM | – | > 100 µM | – | > 100 µM | – | –
CN/N=C(/CC(=O)c1sc(NNC(C)=O)nc1C)C(=O)Nc1ccc(OC)cc1OC | – | > 100 µM | – | > 100 µM | – | > 100 µM | – | – | – | > 100 µM | – | > 100 µM | – | > 100 µM | – | > 100 µM | – | > 100 µM | > 100 µM | –
NCCNc1ncnc2ccc(Cl)cc12 | – | > 100 µM | – | – | – | > 100 µM | – | > 100 µM | – | > 100 µM | – | > 100 µM | – | > 100 µM | – | > 100 µM | – | > 100 µM | > 100 µM | –
NNC(=O)N/N=C1/C(=O)N(c2ccc(Cl)c(Cl)c2)C(=O)C(=O)C1c1nc2ccccc2o1 (configuration not stated) | – | > 100 µM | – | > 100 µM | – | > 100 µM | – | – | – | > 100 µM | – | > 100 µM | – | > 100 µM | – | > 100 µM | – | > 100 µM | > 100 µM | –
O=C(Nc1ccc(N2CCNCC2)cn1)c1[nH]ncc1Nc1ncnc2sc3c(c12)CCC3 | 1.83 µM | 4.81 µM | – | – | 6.28 µM | 29.8 µM | – | – | – | – | 1.41 µM | 2.98 µM | 2 µM | 4.59 µM | – | – | 1.49 µM | 3.22 µM | 23.9 µM | 4.31 µM
COc1ccc2c(c1)C(=O)c1c-2n(CCCNCCO)c(=O)c2cc([N+](=O)[O-])ccc12 | < 0.01 µM | 0.145 µM | < 0.01 µM | < 0.01 µM | < 0.01 µM | 0.122 µM | – | – | < 0.01 µM | 0.378 µM | < 0.01 µM | < 0.01 µM | < 0.01 µM | 4.15 µM | 0.0124 µM | 1.5 µM | < 0.01 µM | 0.117 µM | 0.0115 µM | < 0.01 µM
COc1ccc(S(=O)(=O)N/N=C/CN2C(=O)c3ccccc3C2=O)cc1 | – | > 100 µM | – | > 100 µM | – | > 100 µM | – | > 100 µM | – | – | – | > 100 µM | – | > 100 µM | – | – | – | > 100 µM | > 100 µM | –
Cc1ccc(NC(=O)CC2C(=O)Nc3ccccc3S2(=O)=O)cc1C (configuration not stated) | – | – | – | > 100 µM | – | > 100 µM | – | > 100 µM | – | – | – | > 100 µM | – | > 100 µM | – | > 100 µM | – | > 100 µM | > 100 µM | –
CCOc1cc[n+](C(=C=[N-])C#N)cc1 | – | > 100 µM | – | > 100 µM | – | > 100 µM | – | > 100 µM | – | > 100 µM | – | > 100 µM | – | > 100 µM | – | – | – | > 100 µM | > 100 µM | –
